Here are results for 34 compounds from US20100305120A1, “COMPOUNDS FOR TREATING MUSCULAR DYSTROPHY” (BIOMARIN IGA LIMITED, priority 2008, published 2010).

In one assay the test system is Utrophin A promoter linked to a luciferase reporter gene. Briefly: Luciferase reporter assay (murine H2K cells), H2K/mdx/Utro A reporter cell line. The assay is classed as cell-based. Particulars: 48 h; test compound concentration 0.1 μM; mdx mouse H2K Utrophin A reporter cells; read-out: Activity (luciferase level relative to control). In short, it runs like this: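 Immortalized mdx mouse H2K myoblasts stably carrying ~5 kb utrophin A promoter–luciferase construct, kept at 33 °C, 10% CO2. Compound added 24 h after plating, typically at 10 μM final, for 48 h; luciferase measured by cell lysis and luminescence.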
For `CS(=O)(=O)c1ccc(Cn2nc(C(=O)Nc3ccc4c(c3)OCO4)c3c2CCCC3)cc1` [Compound 149, N-(benzo[d][1,3]dioxol-5-yl)-1-(4-(methylsulfonyl)benzyl)-4,5,6,7-tetrahydro-1H-indazole-3-carboxamide], the activity at 0.1 µM is less than 200%.

Staying with this assay, now noted: 48 h; test compound concentration 0.3 μM; mdx mouse H2K Utrophin A reporter cells; read-out: Activity (luciferase level relative to control).
`O=C(Nc1ccc2c(c1)OCO2)c1nn(Cc2ccc3ccccc3c2)c2ccccc12` [Compound 141, N-(benzo[d][1,3]dioxol-5-yl)-1-(naphthalen-2-ylmethyl)-1H-indazole-3-carboxamide]: the activity at 0.3 µM was less than 200%.

The assay is the same for the next values; noted with them: 48 h; test compound concentration 1 μM; mdx mouse H2K Utrophin A reporter cells; read-out: Activity (luciferase level relative to control).
Take `CS(=O)(=O)c1ccc(Cn2nc(C(=O)Nc3ccc4c(c3)OCO4)c3c2CCC3)cc1` [Compound 150, N-(benzo[d][1,3]dioxol-5-yl)-1-(4-(methylsulfonyl)benzyl)-1,4,5,6-tetrahydrocyclopenta[c]pyrazole-3-carboxamide]: the activity at 1 µM was less than 200%.

The same assay, now with this note: 48 h; test compound concentration 10 μM; mdx mouse H2K Utrophin A reporter cells; read-out: Activity (luciferase level relative to control).
`O=C(Nc1ccc2c(c1)OCO2)c1nn(Cc2ccsc2)c2ccccc12` [Compound 129, N-(benzo[d][1,3]dioxol-5-yl)-1-(thiophen-3-ylmethyl)-1H-indazole-3-carboxamide]: the activity at 10 µM is less than 200%.

Regarding `CS(=O)(=O)c1ccc(Cn2nc(C(=O)Nc3ccc4c(c3)CCC4)c3ccccc32)cc1` [Compound 130, N-(2,3-dihydro-1H-inden-5-yl)-1-(4-(methylsulfonyl)benzyl)-1H-indazole-3-carboxamide], the activity at 10 µM lay within 201 to 300%.

On to `Cc1ccc(Cn2nc(C(=O)Nc3ccc4c(c3)OCO4)c3ccccc32)cc1` [Compound 131, N-(benzo[d][1,3]dioxol-5-yl)-1-(4-methylbenzyl)-1H-indazole-3-carboxamide], for which the activity at 10 µM was less than 200%.

Take `CCc1ccc(Cn2nc(C(=O)Nc3ccc4c(c3)OCO4)c3ccccc32)cc1` [Compound 132, N-(benzo[d][1,3]dioxol-5-yl)-1-(4-ethylbenzyl)-1H-indazole-3-carboxamide]: the activity at 10 µM is 201 to 300%.

As to `Cc1ccc(NC(=O)c2nn(Cc3ccc(S(C)(=O)=O)cc3)c3ccccc23)cn1` [Compound 133, N-(6-methylpyridin-3-yl)-1-(4-(methylsulfonyl)benzyl)-1H-indazole-3-carboxamide], the activity at 10 µM was less than 200%.

As for `Cc1ccc(NC(=O)c2nn(Cc3ccc(S(C)(=O)=O)cc3)c3ccccc23)nc1` [Compound 134, N-(5-methylpyridin-2-yl)-1-(4-(methylsulfonyl)benzyl)-1H-indazole-3-carboxamide], the activity at 10 µM is less than 200%.

Regarding `CN(C)C(=O)c1cccc(Cn2nc3ccccc3c2C(=O)Nc2ccc3c(c2)OC(F)(F)O3)c1` [Compound 135, N-(2,2-difluorobenzo[d][1,3]dioxol-5-yl)-2-(3-(dimethylcarbamoyl)benzyl)-2H-indazole-3-carboxamide], the activity at 10 µM was in the range of 201 to 300%.

Regarding `CS(=O)(=O)c1ccccc1Cn1nc(C(=O)Nc2ccc3c(c2)OCO3)c2ccccc21` [Compound 136, N-(benzo[d][1,3]dioxol-5-yl)-1-(2-(methylsulfonyl)benzyl)-1H-indazole-3-carboxamide], the activity at 10 µM was less than 200%.

Consider `O=C(Nc1ccc2c(c1)OCO2)c1nn(Cc2ccc(S(=O)(=O)N3CCOCC3)cc2)c2ccccc12` [Compound 137, N-(benzo[d][1,3]dioxol-5-yl)-1-(4-(morpholinosulfonyl)benzyl)-1H-indazole-3-carboxamide], for which the activity at 10 µM lay within 201 to 300%.

For the compound `Cc1ccc(NC(=O)c2nn(Cc3ccc(C(=O)N(C)C)cc3)c3ccccc23)cc1` [Compound 138, 1-(4-(dimethylcarbamoyl)benzyl)-N-p-tolyl-1H-indazole-3-carboxamide], the activity at 10 µM was 201 to 300%.

For the compound `CC(C)c1ccc(NC(=O)c2nn(Cc3ccc(C(=O)N(C)C)cc3)c3ccccc23)cc1` [Compound 139, 1-(4-(dimethylcarbamoyl)benzyl)-N-(4-isopropylphenyl)-1H-indazole-3-carboxamide], the activity at 10 µM was less than 200%.

Regarding `CS(=O)(=O)c1ccc(C(=O)n2nc(C(=O)Nc3ccc4c(c3)OCO4)c3ccccc32)cc1` [Compound 140, N-(benzo[d][1,3]dioxol-5-yl)-1-(4-(methylsulfonyl)benzoyl)-1H-indazole-3-carboxamide], the activity at 10 µM is 301 to 400%.

As for `O=C(Nc1ccc2c(c1)OCO2)c1nn(Cc2ccc(C(=O)N3CCCC3)cc2)c2ccccc12` [Compound 142, N-(benzo[d][1,3]dioxol-5-yl)-1-(4-(pyrrolidine-1-carbonyl)benzyl)-1H-indazole-3-carboxamide], the activity at 10 µM was in the range of 201 to 300%.

Turning to `O=C(Nc1ccc2c(c1)OCCO2)c1nn(Cc2ccc(C(=O)N3CCOCC3)cc2)c2ccccc12` [Compound 143, N-(2,3-dihydrobenzo[b][1,4]dioxin-6-yl)-1-(4-(morpholine-4-carbonyl)benzyl)-1H-indazole-3-carboxamide], the activity at 10 µM fell in the range of 301 to 400%.

On to `COc1ccc(NC(=O)c2nn(Cc3ccc(C(=O)N4CCOCC4)cc3)c3ccccc23)cc1` [Compound 144, N-(4-methoxyphenyl)-1-(4-(morpholine-4-carbonyl)benzyl)-1H-indazole-3-carboxamide], for which the activity at 10 µM lay within 301 to 400%.

For `O=C(Nc1ccc2c(c1)OCO2)c1nn(Cc2ccon2)c2ccccc12` [Compound 145, N-(benzo[d][1,3]dioxol-5-yl)-1-(isoxazol-3-ylmethyl)-1H-indazole-3-carboxamide], the activity at 10 µM is less than 200%.

Regarding `CS(=O)(=O)c1ccc(Cn2cc(C(=O)Nc3ccc4c(c3)OCO4)c3ccccc32)cc1` [Compound 146, N-(benzo[d][1,3]dioxol-5-yl)-1-(4-(methylsulfonyl)benzyl)-1H-indole-3-carboxamide], the activity at 10 µM is less than 200%.

On to `CCn1ccc(C(=O)Nc2ccc(Cl)cc2Cl)n1` [Compound 147, N-(2,4-dichlorophenyl)-1-ethyl-1H-pyrazole-3-carboxamide], for which the activity at 10 µM was less than 200%.

On to `CCN(CC)C(=O)c1ccc(Cn2nc(C(=O)Nc3ccc4c(c3)OCO4)c3ccccc32)cc1` [Compound 151, N-(benzo[d][1,3]dioxol-5-yl)-1-(4-(diethylcarbamoyl)benzyl)-1H-indazole-3-carboxamide], for which the activity at 10 µM is less than 200%.

As for `CC(C)S(=O)(=O)c1ccc(Cn2nc(C(=O)Nc3ccc4c(c3)OCO4)c3ccccc32)cc1` [Compound 152, N-(benzo[d][1,3]dioxol-5-yl)-1-(4-(isopropylsulfonyl)benzyl)-1H-indazole-3-carboxamide], the activity at 10 µM is less than 200%.

Turning to `CCc1ccc(Cn2nc(C(=O)Nc3ccc4c(c3)OCO4)c3ccccc32)nc1` [Compound 153, N-(benzo[d][1,3]dioxol-5-yl)-1-((5-ethylpyridin-2-yl)methyl)-1H-indazole-3-carboxamide], the activity at 10 µM is less than 200%.

In the case of `CC(C)c1nc(Cn2nc(C(=O)Nc3ccc4c(c3)OCO4)c3ccccc32)no1` [Compound 154, N-(benzo[d][1,3]dioxol-5-yl)-1-((5-isopropyl-1,2,4-oxadiazol-3-yl)methyl)-1H-indazole-3-carboxamide], the activity at 10 µM was less than 200%.

For `CCc1nnc(Cn2nc(C(=O)Nc3ccc4c(c3)OCO4)c3ccccc32)o1` [Compound 155], the activity at 10 µM was less than 200%.

As to `CCS(=O)(=O)c1ccc(Cn2nc(C(=O)Nc3ccc4c(c3)OCO4)c3ccccc32)cc1` [Compound 156, N-(benzo[d][1,3]dioxol-5-yl)-1-(4-(ethylsulphonyl)benzyl)-1H-indazole-3-carboxamide], the activity at 10 µM fell in the range of 201 to 300%.

Regarding `CS(=O)(=O)c1ccc(Cn2nc(C(=O)O)c3ccccc32)cc1` [Compound 157, 1-(4-(methylsulphonyl)benzyl)-1H-indazole-3-carboxylic acid], the activity at 10 µM is less than 200%.

Take `CCc1ccc(Cn2nc(C(=O)Nc3ccc4c(c3)OCCO4)c3ccccc32)cc1` [Compound 158, N-(2,3-dihydrobenzo[b][1,4]dioxin-6-yl)-1-(4-ethylbenzyl)-1H-indazole-3-carboxamide]: the activity at 10 µM lay in the range of 201 to 300%.

Consider `CCc1ccc(Cn2nc(C(=O)Nc3ccc4c(c3)OC(F)(F)C(F)(F)O4)c3ccccc32)cc1` [Compound 159, 1-(4-ethylbenzyl)-N-(2,2,3,3-tetrafluoro-2,3-dihydrobenzo[b][1,4]dioxin-6-yl)-1H-indazole-3-carboxamide], for which the activity at 10 µM was less than 200%.

For `O=C(Nc1ccc2c(c1)OCCO2)c1nn(Cc2ccc(C(=O)N3CCOCC3)cc2)c2ccc(F)cc12` [Compound 160, N-(2,3-dihydrobenzo[b][1,4]dioxin-6-yl)-5-fluoro-1-(4-(morpholine-4-carbonyl)benzyl)-1H-indazole-3-carboxamide], the activity at 10 µM was less than 200%.

Consider `O=C(Nc1ccc2c(c1)OC(F)(F)C(F)(F)O2)c1nn(Cc2ccc(C(=O)N3CCOCC3)cc2)c2ccccc12` [Compound 161, 1-(4-(morpholine-4-carbonyl)benzyl)-N-(2,2,3,3-tetrafluoro-2,3-dihydrobenzo[b][1,4]dioxin-6-yl)-1H-indazole-3-carboxamide], for which the activity at 10 µM lay in the range of 201 to 300%.

For the compound `O=C(Nc1ccc2c(c1)OCCO2)c1nn(Cc2ccc(C(=O)N3CCOCC3)cc2)c2cc(F)ccc12` [Compound 162, N-(2,3-dihydrobenzo[b][1,4]dioxin-6-yl)-6-fluoro-1-(4-(morpholine-4-carbonyl)benzyl)-1H-indazole-3-carboxamide], the activity at 10 µM lay in the range of 201 to 300%.

Staying with this assay, now noted: 48 h; test compound concentration 30 μM; mdx mouse H2K Utrophin A reporter cells; read-out: Activity (luciferase level relative to control).
Take `CS(=O)(=O)c1ccc(Cn2ccc(C(=O)Nc3ccc4c(c3)OCO4)n2)cc1` [Compound 148, N-(benzo[d][1,3]dioxol-5-yl)-1-(4-(methylsulfonyl)benzyl)-1H-pyrazole-3-carboxamide]: the activity at 30 µM was less than 200%.
